Test results as given in ChEMBL document CHEMBL3045939, “Synthesis and evaluation of fused pyrimidine derivatives as anti-inflammatory, antiproliferative and antimicrobial agents” (Med Chem Res, 2012).
≈ marks a conversion by molar mass, not a printed value.

Columns and labels:
Pseudomonas aeruginosa [1] = test: Antimicrobial activity against Pseudomonas aeruginosa ATCC 27853 assessed as reduction in log10 CFU/ml at MIC after 2 hr by time kill study relative to control; type: functional; set-up: scale not given: the % may be the effect or the level left
Pseudomonas aeruginosa [2] = test: Antimicrobial activity against Pseudomonas aeruginosa ATCC 27853 assessed as reduction in log10 CFU/ml at MIC after 12 hr by time kill study relative to control; type: functional; set-up: scale not given: the % may be the effect or the level left
Candida albicans [3] = test: Antimicrobial activity against Candida albicans ATCC 24433 assessed as reduction in log10 CFU/ml at MIC after 4 hr by time kill study relative to control; type: functional; set-up: scale not given: the % may be the effect or the level left
Staphylococcus aureus [4] = test: Antimicrobial activity against Staphylococcus aureus ATCC 25923 assessed as reduction in log10 CFU/ml at MIC after 6 hr by time kill study relative to control; type: functional; set-up: scale not given: the % may be the effect or the level left
Aspergillus flavus [5] = test: Antimicrobial activity against Aspergillus flavus ATCC 15517 assessed as reduction in log10 CFU/ml at MIC after 12 hr by time kill study relative to control; type: functional; set-up: scale not given: the % may be the effect or the level left
Staphylococcus aureus [6] = test: Antimicrobial activity against Staphylococcus aureus ATCC 25923 assessed as reduction in log10 CFU/ml at MIC after 24 hr by time kill study relative to control; type: functional; set-up: scale not given: the % may be the effect or the level left
Aspergillus flavus [7] = test: Antimicrobial activity against Aspergillus flavus ATCC 15517 assessed as reduction in log10 CFU/ml at MIC after 4 hr by time kill study relative to control; type: functional; set-up: scale not given: the % may be the effect or the level left
Candida albicans [8] = test: Antimicrobial activity against Candida albicans ATCC 24433 assessed as reduction in log10 CFU/ml at MIC after 12 hr by time kill study relative to control; type: functional; set-up: scale not given: the % may be the effect or the level left
Staphylococcus aureus [9] = test: Antimicrobial activity against Staphylococcus aureus ATCC 25923 assessed as reduction in log10 CFU/ml at MIC after 2 hr by time kill study relative to control; type: functional; set-up: scale not given: the % may be the effect or the level left
Staphylococcus aureus [10] = test: Antimicrobial activity against Staphylococcus aureus ATCC 25923 assessed as reduction in log10 CFU/ml at MIC after 4 hr by time kill study relative to control; type: functional; set-up: scale not given: the % may be the effect or the level left
Rattus norvegicus [11] = test: Anti-inflammatory activity in Rattus norvegicus Wistar albino (rat) assessed as carrageenan-induced paw volume at 100 mg/kg, po administered 1 hr prior to carrageenan-challenge measured at 5 hr (reference value: 1.24 +/- 0.0754 mm3); type: functional
Candida albicans [12] = test: Antimicrobial activity against Candida albicans ATCC 24433 assessed as reduction in log10 CFU/ml at MIC after 6 hr by time kill study relative to control; type: functional; set-up: scale not given: the % may be the effect or the level left
Staphylococcus aureus [13] = test: Antimicrobial activity against Staphylococcus aureus ATCC 25923 assessed as reduction in log10 CFU/ml at MIC after 12 hr by time kill study relative to control; type: functional; set-up: scale not given: the % may be the effect or the level left
Aspergillus flavus [14] = test: Antimicrobial activity against Aspergillus flavus ATCC 15517 after 48 hr by broth micro dilution assay; type: functional; settings: ATCC 15517, 48 h
[15] = Cytotoxicity against Homo sapiens (human) Chang cells after 24 hr by MTT assay; type: functional, cell-based
Rattus norvegicus [16] = test: Anti-inflammatory activity in Rattus norvegicus Wistar albino (rat) assessed as carrageenan-induced paw volume at 100 mg/kg, po administered 1 hr prior to carrageenan-challenge measured at 3 hr (reference value: 1.225 +/- 0.0484 mm3); type: functional
HeLa = test: Cytotoxicity against Homo sapiens (human) HeLa cells after 24 hr by MTT assay; type: functional, cell-based
Aspergillus flavus [17] = test: Antimicrobial activity against Aspergillus flavus ATCC 15517 assessed as reduction in log10 CFU/ml at MIC after 2 hr by time kill study relative to control; type: functional; set-up: scale not given: the % may be the effect or the level left
Escherichia coli [18] = test: Antimicrobial activity against Escherichia coli ATCC 25922 assessed as reduction in log10 CFU/ml at MIC after 12 hr by time kill study relative to control; type: functional; set-up: scale not given: the % may be the effect or the level left
Pseudomonas aeruginosa [19] = test: Antimicrobial activity against Pseudomonas aeruginosa ATCC 27853 assessed as reduction in log10 CFU/ml at MIC after 6 hr by time kill study relative to control; type: functional; set-up: scale not given: the % may be the effect or the level left
Escherichia coli [20] = test: Antimicrobial activity against Escherichia coli ATCC 25922 assessed as reduction in log10 CFU/ml at MIC after 4 hr by time kill study relative to control; type: functional; set-up: scale not given: the % may be the effect or the level left
Rattus norvegicus [21] = test: Anti-inflammatory activity in Rattus norvegicus Wistar albino (rat) assessed as carrageenan-induced paw volume at 100 mg/kg, po administered 1 hr prior to carrageenan-challenge measured at 2 hr (reference value: 1.4175 +/- 0.1931 mm3); type: functional
Rattus norvegicus [22] = test: Anti-inflammatory activity in Rattus norvegicus Wistar albino (rat) assessed as carrageenan-induced paw volume at 100 mg/kg, po administered 1 hr prior to carrageenan-challenge measured at 4 hr (reference value: 1.2825 +/- 0.0862 mm3); type: functional
HEp-2 = test: Cytotoxicity against Homo sapiens (human) Hep2 cells after 24 hr by MTT assay; type: functional, cell-based; settings: HEp-2, 24 h
Rattus norvegicus [23] = test: Anti-inflammatory activity in Rattus norvegicus Wistar albino (rat) assessed as carrageenan-induced paw volume at 100 mg/kg, po administered 1 hr prior to carrageenan-challenge measured at 1 hr (reference value: 1.2075 +/- 0.0405 mm3); type: functional
Escherichia coli [24] = test: Antimicrobial activity against Escherichia coli ATCC 25922 after 24 hr by broth micro dilution assay; type: functional; settings: ATCC 25922, 24 h
Escherichia coli [25] = test: Antimicrobial activity against Escherichia coli ATCC 25922 assessed as reduction in log10 CFU/ml at MIC after 24 hr by time kill study relative to control; type: functional; set-up: scale not given: the % may be the effect or the level left
Pseudomonas aeruginosa [26] = test: Antimicrobial activity against Pseudomonas aeruginosa ATCC 27853 assessed as reduction in log10 CFU/ml at MIC after 4 hr by time kill study relative to control; type: functional; set-up: scale not given: the % may be the effect or the level left
Candida albicans [27] = test: Antimicrobial activity against Candida albicans ATCC 24433 after 48 hr by broth micro dilution assay; type: functional; settings: ATCC 24433, 48 h
Pseudomonas aeruginosa [28] = test: Antimicrobial activity against Pseudomonas aeruginosa ATCC 27853 assessed as reduction in log10 CFU/ml at MIC after 24 hr by time kill study relative to control; type: functional; set-up: scale not given: the % may be the effect or the level left
Escherichia coli [29] = test: Antimicrobial activity against Escherichia coli ATCC 25922 assessed as reduction in log10 CFU/ml at MIC after 6 hr by time kill study relative to control; type: functional; set-up: scale not given: the % may be the effect or the level left
Escherichia coli [30] = test: Antimicrobial activity against Escherichia coli ATCC 25922 assessed as reduction in log10 CFU/ml at MIC after 2 hr by time kill study relative to control; type: functional; set-up: scale not given: the % may be the effect or the level left
Staphylococcus aureus [31] = test: Antimicrobial activity against Staphylococcus aureus ATCC 25923 after 24 hr by broth micro dilution assay; type: functional; settings: ATCC 25923, 24 h
Pseudomonas aeruginosa [32] = test: Antimicrobial activity against Pseudomonas aeruginosa ATCC 27853 after 24 hr by broth micro dilution assay; type: functional; settings: ATCC 27853, 24 h
Candida albicans [33] = test: Antimicrobial activity against Candida albicans ATCC 24433 assessed as reduction in log10 CFU/ml at MIC after 24 hr by time kill study relative to control; type: functional; set-up: scale not given: the % may be the effect or the level left
Candida albicans [34] = test: Antimicrobial activity against Candida albicans ATCC 24433 assessed as reduction in log10 CFU/ml at MIC after 2 hr by time kill study relative to control; type: functional; set-up: scale not given: the % may be the effect or the level left
Aspergillus flavus [35] = test: Antimicrobial activity against Aspergillus flavus ATCC 15517 assessed as reduction in log10 CFU/ml at MIC after 24 hr by time kill study relative to control; type: functional; set-up: scale not given: the % may be the effect or the level left
Aspergillus flavus [36] = test: Antimicrobial activity against Aspergillus flavus ATCC 15517 assessed as reduction in log10 CFU/ml at MIC after 6 hr by time kill study relative to control; type: functional; set-up: scale not given: the % may be the effect or the level left

SMILES: O=c1c2cc(Cl)ccc2nc(-c2ccccc2)n1-c1ccc(F)cc1
- Activity (Pseudomonas aeruginosa [1]): 66.7%
- Activity (Pseudomonas aeruginosa [2]): 100%
- Activity (Candida albicans [3]): 66.7%
- Activity (Staphylococcus aureus [4]): 100%
- Activity (Aspergillus flavus [5]): 66.7%
- Activity (Staphylococcus aureus [6]): 100%
- Activity (Aspergillus flavus [7]): 22.2%
- Activity (Candida albicans [8]): 100%
- Activity (Staphylococcus aureus [9]): 33.3%
- Activity (Staphylococcus aureus [10]): 66.7%
- Activity (Rattus norvegicus [11]): 1.21 mm3
- Activity (Candida albicans [12]): 100%
- Activity (Staphylococcus aureus [13]): 100%
- MIC (Aspergillus flavus [14]): 6.25 µg/mL (≈ 17.8 µM)
- IC50 [15]: 16.6 µg/mL (≈ 47.3 µM)
- Activity (Rattus norvegicus [16]): 1.21 mm3
- IC50 (HeLa): < 25 µg/mL
- Activity (Aspergillus flavus [17]): 11.1%
- Activity (Escherichia coli [18]): 100%
- Activity (Pseudomonas aeruginosa [19]): 100%
- Activity (Escherichia coli [20]): 66.7%
- Activity (Rattus norvegicus [21]): 1.2675 mm3
- Activity (Rattus norvegicus [22]): 1.275 mm3
- IC50 (HEp-2): 10.8 µg/mL (≈ 30.7 µM)
- Activity (Rattus norvegicus [23]): 1.22 mm3
- MIC (Escherichia coli [24]): 0.39 µg/mL (≈ 1.11 µM)
- Activity (Escherichia coli [25]): 100%
- Activity (Pseudomonas aeruginosa [26]): 66.7%
- MIC (Candida albicans [27]): 1.56 µg/mL (≈ 4.45 µM)
- Activity (Pseudomonas aeruginosa [28]): 100%
- Activity (Escherichia coli [29]): 100%
- Activity (Escherichia coli [30]): 33.3%
- MIC (Staphylococcus aureus [31]): 0.39 µg/mL (≈ 1.11 µM)
- MIC (Pseudomonas aeruginosa [32]): 0.78 µg/mL (≈ 2.22 µM)
- Activity (Candida albicans [33]): 100%
- Activity (Candida albicans [34]): 44.4%
- Activity (Aspergillus flavus [35]): 100%
- Activity (Aspergillus flavus [36]): 88.9%
